The record followed here is article PMC6299220 (mBio, 2018).

The subject of experiment [1] is M. tuberculosis DRM167-16x3 (KasA V123A). The experiment is classed as cell-based, Mycobacterium tuberculosis.
In experiment [2] the test system is M. tuberculosis DRM167-16x6 (KasA I122S). The experiment is classed as cell-based, Mycobacterium tuberculosis.
Experiment [3] relates to M. tuberculosis DRM167-8x3 (KasA I145T). The class given is cell-based, Mycobacterium tuberculosis.
Experiment [4] concerns M. tuberculosis DRM167-32x2 (KasA P206T). The class given is cell-based, Mycobacterium tuberculosis.
Experiment [5] has as its system M. tuberculosis DRM167-8x2 (KasA A119T). The class given is cell-based, Mycobacterium tuberculosis.
In experiment [6] the test system is M. tuberculosis DRM167-8x6 (KasA M213L). The experiment is classed as cell-based, Mycobacterium tuberculosis.
Experiment [7] relates to M. tuberculosis DRM167-32x11 (KasA G240S). The experiment is classed as cell-based, Mycobacterium tuberculosis.
The test system of experiment [8] is M. tuberculosis.
Experiment [9] deals with M. tuberculosis TDR116. As to the kind of experiment: microbe, parasite or virus in culture. The experiment is classed as cell-based. The conditions noted are these: Mycobacterium tuberculosis.
Experiment [10] deals with mycolic acid biosynthesis in M. tuberculosis DRM167-32x2 (KasA P206T). The experiment is classed as cell-based, Mycobacterium tuberculosis.
Experiment [11] concerns M. tuberculosis mc^24914. As to the kind of experiment: microbe, parasite or virus in culture. The experiment is classed as cell-based. The conditions noted are these: Mycobacterium tuberculosis.
Experiment [12] deals with M. tuberculosis TDR31. As to the kind of experiment: microbe, parasite or virus in culture. The experiment is classed as cell-based. The conditions noted are these: Mycobacterium tuberculosis.
For experiment [13], the system named is M. tuberculosis TDR36. As to the kind of experiment: microbe, parasite or virus in culture. The experiment is classed as cell-based. The conditions noted are these: Mycobacterium tuberculosis.
In experiment [14] the test system is M. tuberculosis DRM5. As to the kind of experiment: microbe, parasite or virus in culture. The experiment is classed as cell-based. The conditions noted are these: Mycobacterium tuberculosis.
Experiment [15] relates to M. tuberculosis DRM8.3. As to the kind of experiment: microbe, parasite or virus in culture. The class given is cell-based. The conditions noted are these: Mycobacterium tuberculosis.

Molecules are shown by their SMILES. ≈ marks a conversion by molar mass, not a printed value.

`COc1nc2ccc(Br)cc2cc1[C@@H](c1ccccc1)[C@@](O)(CCN(C)C)c1cccc2ccccc12` [BDQ, bedaquiline]: the MIC in experiment [1] amounted to 0.5 µM (≈ 0.278 µg/mL); in experiment [2], 0.5 µM (≈ 0.278 µg/mL); in [3], 1 µM (≈ 0.556 µg/mL); in experiment [4], 0.12 µM (≈ 0.0667 µg/mL); in experiment [5] it was 0.5 µM (≈ 0.278 µg/mL); in experiment [6], 0.5 µM (≈ 0.278 µg/mL). Besides, the MIC in [7] is listed as 0.25 µM (≈ 0.139 µg/mL).
Take `CCCCS(=O)(=O)Nc1ccc2cnn(C)c2c1` [DG167, N-(1-Methyl-1H-indazol-6-yl)butane-1-sulfonamide]: in [8], the “frequency of resistant mutants” value was 1 × 10^−7. For the same compound, the MIC in [1] was 1.56 µM (≈ 0.417 µg/mL); in experiment [2] it was 50 µM (≈ 13.4 µg/mL); in experiment [9], 0.2 µM (≈ 0.0535 µg/mL); in experiment [3], 6.25 µM (≈ 1.67 µg/mL); in [4] it was above 100 µM; in [11] it was 0.78 µM (≈ 0.209 µg/mL). Further, the MIC in experiment [5] was determined as 50 µM (≈ 13.4 µg/mL); in experiment [6], 3.12 µM (≈ 0.834 µg/mL); in experiment [7] it was 100 µM (≈ 26.7 µg/mL); in experiment [12], 0.2 µM (≈ 0.0535 µg/mL). For the same compound, the “inhibition of mycolic acid biosynthesis” value in [10] was “resistant to DG167-mediated inhibition of mycolic acid biosynthesis”.
With `CC[C@@H](CO)NCCN[C@@H](CC)CO` [EMB, ethambutol], the MIC in [1], in experiment [2], in experiment [3], in [4], in [5] and in [6] was 1.56 µM (≈ 0.319 µg/mL) throughout. In [7], this compound gave an MIC of 1.56 µM (≈ 0.319 µg/mL).
On to `CCc1cc(C(N)=S)ccn1` [ETH, ethionamide], for which the MIC in experiment [1] is recorded as 25 µM (≈ 4.16 µg/mL); in [2] it was 12.5 µM (≈ 2.08 µg/mL); in experiment [3], 25 µM (≈ 4.16 µg/mL); in experiment [4], 12.5 µM (≈ 2.08 µg/mL); in experiment [5], 12.5 µM (≈ 2.08 µg/mL); in experiment [6], 25 µM (≈ 4.16 µg/mL). The same compound returned an MIC in experiment [7] of 12.5 µM (≈ 2.08 µg/mL).
`NNC(=O)c1ccncc1` [INH, isoniazid]: the MIC in experiment [1] was 0.38 µM (≈ 0.0521 µg/mL); in experiment [2] it was 0.19 µM (≈ 0.0261 µg/mL); in [13], above 12 µM; in experiment [9] it was above 12 µM; in experiment [14], 0.4 µM (≈ 0.0549 µg/mL); in experiment [3] it was 0.38 µM (≈ 0.0521 µg/mL). The MIC in [4] worked out at 0.19 µM (≈ 0.0261 µg/mL); in [11], 1.6 µM (≈ 0.219 µg/mL); in experiment [5], 0.38 µM (≈ 0.0521 µg/mL); in experiment [6], 0.38 µM (≈ 0.0521 µg/mL); in experiment [7], 0.19 µM (≈ 0.0261 µg/mL); in [15] it was 0.4 µM (≈ 0.0549 µg/mL). For the same compound, the MIC in [12] is above 12 µM.
On to `COc1c(N2C[C@@H]3CCCN[C@@H]3C2)c(F)cc2c(=O)c(C(=O)O)cn(C3CC3)c12` [Moxi, moxifloxacin], for which the MIC in [1], in experiment [2], in [3], in [4], in [5] and in [6] was 0.03 µM (≈ 0.012 µg/mL) in each case. For the same compound, the MIC in experiment [7] is 0.03 µM (≈ 0.012 µg/mL).
For the compound `O=[N+]([O-])c1cn2c(n1)OC[C@@H](OCc1ccc(OC(F)(F)F)cc1)C2` [PA824], the MIC in experiment [1], in experiment [2], in experiment [3], in [4], in experiment [5] and in [6] was 0.1 µM (≈ 0.0359 µg/mL) in each case. The MIC in experiment [7] was found to be 0.1 µM (≈ 0.0359 µg/mL).
Take `CO[C@H]1/C=C/O[C@@]2(C)Oc3c(C)c(O)c4c(O)c(c(/C=N/N5CCN(C)CC5)c(O)c4c3C2=O)NC(=O)/C(C)=C\C=C\[C@H](C)[C@H](O)[C@@H](C)[C@@H](O)[C@@H](C)[C@H](OC(C)=O)[C@@H]1C` [RIF, rifampin]: the MIC worked out at 0.001 µM (≈ 0.000823 µg/mL) in [1]; 0.001 µM (≈ 0.000823 µg/mL) in [2]; 0.002 µM (≈ 0.00165 µg/mL) in experiment [3]; 0.001 µM (≈ 0.000823 µg/mL) in experiment [4]; 0.001 µM (≈ 0.000823 µg/mL) in [5]; 0.001 µM (≈ 0.000823 µg/mL) in experiment [6]. In addition, the MIC in experiment [7] is 0.001 µM (≈ 0.000823 µg/mL).
For the compound `CC(C)=CCC/C(C)=C/CNCCNC1C2CC3CC(C2)CC1C3` (centres unmarked) [SQ109], the MIC is 0.8 µM (≈ 0.264 µg/mL) in [1]; 0.4 µM (≈ 0.132 µg/mL) in experiment [2]; 0.8 µM (≈ 0.264 µg/mL) in [3]; 0.4 µM (≈ 0.132 µg/mL) in experiment [4]; 0.8 µM (≈ 0.264 µg/mL) in experiment [5]; 0.4 µM (≈ 0.132 µg/mL) in [6]. The compound further displayed an MIC in experiment [7] of 0.4 µM (≈ 0.132 µg/mL).
